Results taken from EP2340832A1, “Morphinan-6-one compounds for the treatment or prevention of neurodegenerative diseases” (Universität Innsbruck, priority 2009, dated 2011).

Molecular target: µ opioid receptor (Rattus norvegicus, UniProt P33535)
Assay: [35S]GTPγS functional assay, rat brain membranes, µ receptor
Type: biochemical, Sprague-Dawley rat
Set-up: from tissue; host or cells: Sprague-Dawley rat brain (without cerebella) membranes
Conditions: read-out: Emax (% of basal activity)
Description: Membrane fractions were prepared from Sprague-Dawley rat or guinea pig brains as described above. To determine binding of [^35S]GTPyS, rat or guinea pig brain membranes (10 µg of protein) were incubated for 60 min at 30 °C in Tris-EGTA buffer (50 mM Tris-HCl buffer, 3 mM MgCl2, 1 mM EGTA, […], pH 7.4) containing 30 µM GDP, 0.05 nM [^35S]GTPyS and appropriate concentrations of the respective compounds according to the present invention in a final volume of 1 ml. The reaction was terminated by vacuum filtration through Whatman GF/B glass fibre filters. Filters were washed three times with ice-cold 50 mM Tris-HCI buffer (pH 7.4) and the bound radioactivity was measured by liquid scintillation counting (Beckman Coulter™ LS6500). Basal activity was determined by subtracting the non-specific binding (measured in the presence of 100 µM unlabelled GTPyS) from the total binding (measured in the absence of the compound).
Stimulation produced by the compound is given as percentage of the basal activity (given as 100%). Functional data, EC50 (nM; half maximal effective concentration) and maximal stimulation Emax (% stimulation over basal level; maximal effective concentration), were calculated by using nonlinear regression analysis and sigmoidal curve fitting GraphPad Prism (San Diego, CA, USA) program. […]

µ opioid receptor, sequence (P33535 whole entry): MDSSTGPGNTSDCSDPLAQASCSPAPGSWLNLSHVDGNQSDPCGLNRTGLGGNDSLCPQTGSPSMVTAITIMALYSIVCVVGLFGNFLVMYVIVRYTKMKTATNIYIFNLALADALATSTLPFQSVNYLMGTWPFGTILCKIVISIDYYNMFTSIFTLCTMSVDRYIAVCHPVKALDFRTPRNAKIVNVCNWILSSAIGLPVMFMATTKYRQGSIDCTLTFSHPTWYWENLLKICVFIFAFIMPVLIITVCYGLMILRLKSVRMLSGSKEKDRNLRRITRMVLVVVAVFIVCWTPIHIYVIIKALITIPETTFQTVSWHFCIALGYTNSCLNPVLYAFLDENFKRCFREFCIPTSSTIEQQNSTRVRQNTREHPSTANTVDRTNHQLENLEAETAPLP

Compound: C[C@@H](NC(=O)[C@@H](N)Cc1ccc(O)cc1)C(=O)NCC(=O)N(C)[C@@H](Cc1ccccc1)C(=O)NCCO [DAMGO, [D-Ala^2, Me-Phe ^4, Gly-ol^5]enkephalin]
- Emax: 179 ± 5%
